Consider 35 compounds from patent US20240150377A1, “MODULATORS OF CYSTIC FIBROSIS TRANSMEMBRANE CONDUCTANCE REGULATOR” (VERTEX PHARMACEUTICALS INCORPORATED, priority 2020, published 2024).

Read-outs that look alike come from different tables or passages of the source. Where only a bound is given, the exact number is not on record here.

For the experiment, the target named is T1, CFTR (Homo sapiens, UniProt P13569, DEL508-508).
T1 construct: endogenous in cells; host or cells: primary human bronchial epithelial cells from CF subjects (F508del/MF-HBE), differentiated at air-liquid interface
T1 sequence (P13569 with tags, fused parts or gaps DEL508-508): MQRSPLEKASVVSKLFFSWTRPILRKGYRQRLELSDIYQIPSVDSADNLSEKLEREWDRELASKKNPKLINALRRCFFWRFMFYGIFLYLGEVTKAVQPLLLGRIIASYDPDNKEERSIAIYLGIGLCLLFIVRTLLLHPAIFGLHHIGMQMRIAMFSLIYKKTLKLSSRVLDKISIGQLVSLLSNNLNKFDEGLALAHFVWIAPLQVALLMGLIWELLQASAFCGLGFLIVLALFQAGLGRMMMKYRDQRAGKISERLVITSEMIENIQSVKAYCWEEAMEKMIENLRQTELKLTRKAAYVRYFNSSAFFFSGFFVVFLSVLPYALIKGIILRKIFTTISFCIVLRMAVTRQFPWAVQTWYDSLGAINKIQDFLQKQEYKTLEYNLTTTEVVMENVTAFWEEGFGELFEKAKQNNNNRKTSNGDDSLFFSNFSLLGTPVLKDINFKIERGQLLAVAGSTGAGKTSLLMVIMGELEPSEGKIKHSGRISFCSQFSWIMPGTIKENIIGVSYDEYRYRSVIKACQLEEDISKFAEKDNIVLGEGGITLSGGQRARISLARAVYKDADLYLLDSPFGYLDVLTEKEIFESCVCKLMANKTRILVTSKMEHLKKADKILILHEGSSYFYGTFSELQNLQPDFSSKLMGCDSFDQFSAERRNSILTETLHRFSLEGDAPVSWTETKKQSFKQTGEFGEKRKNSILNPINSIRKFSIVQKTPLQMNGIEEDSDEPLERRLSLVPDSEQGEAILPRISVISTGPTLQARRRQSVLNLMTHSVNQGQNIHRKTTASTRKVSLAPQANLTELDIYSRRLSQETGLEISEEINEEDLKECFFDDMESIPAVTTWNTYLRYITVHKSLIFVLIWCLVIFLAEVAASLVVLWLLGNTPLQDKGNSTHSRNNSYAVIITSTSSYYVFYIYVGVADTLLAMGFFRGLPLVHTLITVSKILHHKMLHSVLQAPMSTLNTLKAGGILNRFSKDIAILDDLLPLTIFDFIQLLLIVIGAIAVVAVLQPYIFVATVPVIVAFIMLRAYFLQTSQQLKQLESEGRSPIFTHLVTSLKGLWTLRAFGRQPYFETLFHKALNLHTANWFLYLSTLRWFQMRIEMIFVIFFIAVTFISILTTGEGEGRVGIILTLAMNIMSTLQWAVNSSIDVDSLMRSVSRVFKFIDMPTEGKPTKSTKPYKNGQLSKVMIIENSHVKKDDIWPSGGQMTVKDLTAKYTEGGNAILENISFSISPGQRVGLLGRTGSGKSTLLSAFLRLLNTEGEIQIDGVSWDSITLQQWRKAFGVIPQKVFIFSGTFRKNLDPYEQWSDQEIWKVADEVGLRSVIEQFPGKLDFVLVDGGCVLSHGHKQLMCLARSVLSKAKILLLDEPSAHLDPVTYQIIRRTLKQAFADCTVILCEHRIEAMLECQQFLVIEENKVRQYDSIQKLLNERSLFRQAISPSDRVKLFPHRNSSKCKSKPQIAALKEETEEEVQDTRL
As to the kind of experiment: HBE assay: Ussing chamber assay of CFTR-mediated short-circuit currents. It counts as cell-based. Particulars: for EC50: read-out: HBE EC50; for activation at 10 µM: read-out: HBE Activity at 10 μM (%). The procedure, abridged: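 CFTR-mediated Isc (μA/cm²) equals the peak response to apical 20 μM forskolin minus the residual after a 20 μM each BPO/GlyH-101/CFTR inhibitor 172 cocktail, recorded in Ussing chambers at Vhold 0 mV, 37 °C, pH 7.4, with 30 μM apical amiloride. Cells were F508del/MF HBE cultures preincubated 18-24 h with corrector (concentration range or 10 μM) plus 1 μM ivacaftor in 20% human serum.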

Where [1] appears, read: Table 12, read-out: HBE Max Activity (%).
Setting [2] is: HBE assay, read-out: HBE Max activity (%).
Where [3] appears, read: Table 11, read-out: HBE Max Activity (%).
The mark [4] stands for this setting: Table 10, read-out: HBE Max activity (%).
[5] abbreviates: Table 13, read-out: HBE Max Activity (%).

Regarding `Cc1cccc(C)c1-c1cc2nc(n1)NS(=O)(=O)c1cccc(c1)C(=O)N(Cc1ncc(N3CC4CCC3C4)cn1)[C@H](CC(C)(C)C)CO2` (stereo partly drawn) [Compound 874], the EC50 (Table 12) is less than 1000 nM. In addition, the Emax under setting [1] is greater than 60%.

Turning to `Cc1cccc(C)c1-c1cc2nc(n1)NS(=O)(=O)c1cccc(c1)C(=O)N(CC(=O)N1Cc3ccccc3C1)[C@H](CC(C)(C)C)CO2` [Compound 168], the activation at 10 µM (Table 13, at 10 μM) was greater than 600%.

With `Cc1cccc(C)c1-c1cc2nc(n1)NS(=O)(=O)c1cccc(c1)C(=O)N(CC(=O)N1C[C@H](C)O[C@@H](C)C1)[C@H](CC(C)(C)C)CO2` [Compound 185], the activation at 10 µM (Table 13, at 10 μM) was greater than 600%.

Take `Cc1cccc(C)c1-c1cc2nc(n1)NS(=O)(=O)c1cccc(c1)C(=O)N(CC1(NC(=O)OC(C)(C)C)CC3(CCC3)C1)[C@H](CC(C)(C)C)CO2` [Compound 999]: for the setting “Table 13, at 10 μM”, the activation at 10 µM is greater than 600%.

Regarding `Cc1cccc(C)c1-c1cc2nc(n1)NS(=O)(=O)c1cccc(c1)C(=O)N(Cc1cccc(N3[C@H](C)CC[C@@H]3C)n1)[C@H](CC(C)(C)C)CO2` (stereo in doubt) [Compound 1401], the EC50 (HBE assay) was less than 1000 nM. For the same compound, the Emax under setting [2] is greater than 60%.

Consider `Cc1cccc(C)c1-c1cc2nc(n1)NS(=O)(=O)c1cccc(c1)C(=O)N(Cc1ncc(OC3CCC3)cc1F)[C@H](CC(C)(C)C)CO2` [Compound 1299, (11R)-12-[[5-(Cyclobutoxy)-3-fluoro-2-pyridyl]methyl]-6-(2,6-dimethylphenyl)-11-(2,2-dimethylpropyl)-2,2-dioxo-9-oxa-2λ^6-thia-3,5,12,19-tetrazatricyclo[12.3.1.14,8]nonadeca-1(18),4(19),5,7,14,16-hexaen-13-one], for which the 50% effective concentration (EC50) (HBE assay) is less than 1000 nM. Also, the Emax under setting [2] is greater than 60%.

As to `COC(=O)NC1CC2(CC(CN3C(=O)c4cccc(c4)S(=O)(=O)Nc4nc(cc(-c5c(C)cccc5C)n4)OC[C@H]3CC(C)(C)C)C2)C1` (stereo partly drawn) [Compound 1001], under “Table 13, at 10 μM”, the activation at 10 µM is greater than 600%.

With `Cc1cccc(C)c1-c1cc2nc(n1)NS(=O)(=O)c1cccc(c1)C(=O)N(Cc1nccc(N(C)C)n1)[C@H](CC(C)(C)C)CO2` [Compound 649], the EC50 (Table 11) is less than 1000 nM. In addition, the Emax under setting [3] was greater than 60%.

Take `Cc1cc(N(C)C)cnc1CN1C(=O)c2cccc(c2)S(=O)(=O)Nc2nc(cc(-c3c(C)cccc3C)n2)OC[C@H]1CC(C)(C)C` [Compound 494]: the EC50 (Table 10) was less than 1000 nM. Further, the Emax under setting [4] was greater than 60%.

As for `Cc1cccc(C)c1-c1cc2nc(n1)NS(=O)(=O)c1cccc(c1)C(=O)N(C[C@H]1C[C@@H](NC(=O)OC(C)C)C1)[C@H](CC(C)(C)C)CO2` [Compound 1006], the activation at 10 µM (Table 12, at 10 μM) is greater than 600%.

For the compound `COCC(COC)N(C)c1cncc(CN2C(=O)c3cccc(c3)S(=O)(=O)Nc3nc(cc(-c4c(C)cccc4C)n3)OC[C@H]2CC(C)(C)C)n1` [Compound 1531], under “HBE assay, 10 μM”, the activation at 10 µM is greater than 60%.

For the compound `Cc1cccc(C)c1-c1cc2nc(n1)NS(=O)(=O)c1cccc(c1)C(=O)N(Cc1nccc(N3CCC[C@H]3C)n1)[C@H](CC(C)(C)C)CO2` [Compound 618], the EC50 (Table 11) is less than 1000 nM. The Emax under setting [3] was greater than 60%.

For the compound `COCCCOc1cnc(CN2C(=O)c3cccc(c3)S(=O)(=O)Nc3nc(cc(-c4c(C)cccc4C)n3)OC[C@H]2CC(C)(C)C)c(F)c1` [Compound 1385], where the note is “HBE assay”, the EC50 was less than 1000 nM. Besides, the Emax under setting [2] is greater than 60%.

Take `Cc1cccc(C)c1-c1cc2nc(n1)NS(=O)(=O)c1cccc(c1)C(=O)N(Cc1ccc(-c3ccccc3)cn1)[C@H](CC(C)(C)C)CO2` [Compound 476]: under “Table 10”, the “HBE Max activity (%)” value is on record as “+++ (+++ is >60%)” and the EC50 is 1000 to 3000 nM.

With `COC(C)(C)CNc1cncc(CN2C(=O)c3cccc(c3)S(=O)(=O)Nc3nc(cc(-c4c(C)cccc4C)n3)OC[C@H]2CC(C)(C)C)n1` [Compound 1483], for the setting “HBE assay”, the EC50 is less than 1000 nM. Besides, the Emax under setting [2] was greater than 60%.

For `Cc1cccc(C)c1-c1cc2nc(n1)NS(=O)(=O)c1cccc(c1)C(=O)N(Cc1cccc(N3CCC[C@H]3CO)n1)[C@H](CC(C)(C)C)CO2` [Compound 279], the EC50 (Table 12) is less than 1000 nM. For the same compound, the Emax under setting [1] was greater than 60%.

Turning to `Cc1cccc(C)c1-c1cc2nc(n1)NS(=O)(=O)c1cccc(c1)C(=O)N(CC(=O)N1CCC(OC(C)C)C1)[C@H](CC(C)(C)C)CO2` (stereo partly drawn) [Compound 201], the activation at 10 µM (Table 13, at 10 μM) is greater than 600%.

`Cc1cccc(C)c1-c1cc2nc(n1)NS(=O)(=O)c1cccc(c1)C(=O)N(CC(=O)N1CCOCC1(C)C)[C@H](CC(C)(C)C)CO2` [Compound 214]: the activation at 10 µM (Table 13, at 10 μM) was greater than 600%.

`COc1cnc(CN2C(=O)c3cccc(c3)S(=O)(=O)Nc3nc(cc(-c4c(C)cccc4C)n3)OC[C@H]2CC(C)(C)C)c(Cl)c1` [Compound 1067]: the EC50 (Table 13) is less than 1000 nM. The Emax under setting [5] is greater than 60%.

Regarding `Cc1cccc(C)c1-c1cc2nc(n1)NS(=O)(=O)c1cccc(c1)C(=O)N(Cc1ncc(N(C(C)C)C(C)C)cn1)[C@H](CC(C)(C)C)CO2` [Compound 629], for the setting “Table 11”, the EC50 was 3000 to 30000 nM. Under setting [3], the Emax is greater than 60%.

For `Cc1cccc(C)c1-c1cc2nc(n1)NS(=O)(=O)c1cccc(c1)C(=O)N(Cc1ncc(CC(C)C)cn1)[C@H](CC(C)C)CO2` [Compound 574], the EC50 (Table 12) is less than 1000 nM. Further, the Emax under setting [1] is greater than 60%.

In the case of `Cc1cccc(C)c1-c1cc2nc(n1)NS(=O)(=O)c1cccc(c1)C(=O)N(CC1CCOC1)[C@H](CC(C)(C)C)CO2` (stereo partly drawn) [Compound 901], under “Table 11, at 10 μM”, the activation at 10 µM is greater than 60%.

Consider `Cc1cccc(C)c1-c1cc2nc(n1)NS(=O)(=O)c1cccc(c1)C(=O)N(Cc1cccc(N3CCOC[C@@H]3C)n1)[C@H](CC(C)(C)C)CO2` (stereo in doubt) [Compound 1400], for which the EC50 (HBE assay) is less than 1000 nM. In addition, the Emax under setting [2] was greater than 60%.

As to `COCCN(c1ccc(C)c(CN2C(=O)c3cccc(c3)S(=O)(=O)Nc3nc(cc(-c4c(C)cccc4C)n3)OC[C@H]2CC(C)(C)C)n1)C(C)C` [Compound 1343], the EC50 (HBE assay) is less than 1000 nM. Further, the Emax under setting [2] is greater than 60%.

With `Cc1cccc(C)c1-c1cc2nc(n1)NS(=O)(=O)c1cccc(c1)C(=O)N(Cc1nccc(N3CCCC3(C)C)n1)[C@H](CC(C)(C)C)CO2` [Compound 587], the EC50 (Table 12) was less than 1000 nM. The Emax under setting [1] is greater than 60%.

Turning to `Cc1cccc(C)c1-c1cc2nc(n1)NS(=O)(=O)c1cccc(c1)C(=O)N(CC1CCC(O)(C(F)(F)F)CC1)[C@H](CC(C)(C)C)CO2` (stereo partly drawn) [Compound 904], the EC50 (Table 10) was less than 1000 nM.

Consider `COc1cnc(CN2C(=O)c3cccc(c3)S(=O)(=O)Nc3nc(cc(-c4c(C)cccc4C)n3)OC[C@H]2CC(C)(C)C)nc1C` [Compound 611], for which, for the setting “Table 11”, the EC50 was less than 1000 nM. Besides, the Emax under setting [3] is greater than 60%.

For the compound `Cc1cccc(C)c1-c1cc2nc(n1)NS(=O)(=O)c1cccc(c1)C(=O)N(Cc1ccnc(N(C)C(C)C)n1)[C@H](CC(C)(C)C)CO2` [Compound 628], the EC50 (Table 11) is less than 1000 nM. Under setting [3], the Emax was greater than 60%.

Regarding `Cc1cccc(C)c1C1CC2NC(N1)NS(=O)(=O)C1CCCC(C1)C(=O)N(Cc1cccc(-c3c[nH]nc3C(C)(C)C)c1)[C@H](CC(C)(C)C)CO2` (stereo partly drawn) [Compound 309], under setting [4], the Emax was greater than 60%.

For the compound `Cc1cccc(C)c1-c1cc2nc(n1)NS(=O)(=O)c1cccc(c1)C(=O)N(Cc1ccc(N3CCCC3=O)cn1)[C@H](CC(C)(C)C)CO2` [Compound 257], the activation at 10 µM (Table 13, at 10 μM) was greater than 600%.

As to `Cc1cccc(C)c1-c1cc2nc(n1)NS(=O)(=O)c1cccc(c1)C(=O)N(Cc1ncc(N3CCC(C)(C)CC3)cn1)[C@H](CC(C)(C)C)CO2` [Compound 117, (11R)-6-(2,6-dimethylphenyl)-12-[[5-(4,4-dimethyl-1-piperidyl)pyrimidin-2-yl]methyl]-11-(2,2-dimethylpropyl)-2,2-dioxo-9-oxa-2λ^6-thia-3,5,12,19-tetrazatricyclo[12.3.1.14,8]nonadeca-1(18),4(19),5,7,14,16-hexaen-13-one], the EC50 (Table 11) is less than 1000 nM. In addition, the Emax under setting [3] is greater than 60%.

As to `Cc1cccc(C)c1-c1cc2nc(n1)NS(=O)(=O)c1cccc(c1)C(=O)N(Cc1nccc(N(C)C3CCOCC3)n1)[C@H](CC(C)(C)C)CO2` [Compound 616], where the note is “Table 11”, the EC50 is less than 1000 nM. The Emax under setting [3] is greater than 60%.

Regarding `Cc1cc(NC(C)C)cnc1CN1C(=O)c2cccc(c2)S(=O)(=O)Nc2nc(cc(-c3c(C)cccc3C)n2)OC[C@H]1CC(C)(C)C` [Compound 1373], the EC50 (HBE assay) was less than 1000 nM. Also, under setting [2], the Emax is greater than 60%.

Regarding `Cc1cccc(C)c1-c1cc2nc(n1)NS(=O)(=O)c1cccc(n1)C(=O)N(Cc1ncc(N3CCC(C)(C)C3=O)cn1)[C@H](CC(C)(C)C)CO2` [Compound 1141], where the note is “Table 13”, the EC50 is less than 1000 nM. For the same compound, the Emax under setting [5] is greater than 60%.

On to `Cc1cccc(C)c1-c1cc2nc(n1)NS(=O)(=O)c1cccc(c1)C(=O)N(Cc1ccc(C(=O)N3CCC(C)(C)C3)cn1)[C@H](CC(C)(C)C)CO2` [Compound 246], for which the activation at 10 µM (Table 13, at 10 μM) is greater than 600%.

As a reminder, the EC50 is the concentration giving half of the maximal effect.
